pIC50, pKi: −log10 of the molar value. Activity calls are given as the source filed them. The calls are words filed in the database; no cut-off is given here.
Columns and labels:
[1] = Competitive inhibition of rat brain Ca2+/CaM kinase II assessed as inhibition constant in presence of [gamma-33P]ATP and varying concentration of calmodulin; type: tissue-based
PC12D [2] = experiment: Inhibition of A23187-induced Ca2+/CaM kinase II 53-kDa autophosphorylation in [32P] orthophosphate labeled rat PC12D cells preincubated with compound for 1 hr followed by A23187 induction and measured after 30 mins by immunoprecipitation method; type: cell-based; conditions: dose 0.5-1 µM, time 1.5 hrs
[3] = target: Calcium/calmodulin-dependent protein kinase type II subunit alpha (Rattus norvegicus, UniProt P11275); experiment: Inhibition of rat brain Ca2+/CaM kinase II alpha subunit autophosphorylation measured after 2 mins in presence of [gamma-33P]ATP by SDS-PAGE analysis; type: tissue-based
[4] = Inhibition of rat brain Ca2+/CaM kinase II autophosphorylation measured at Pi/mg enzyme after phosphorylation at 50 uM incubated for 5 min in presence of [gamma-33P]ATP
[5] = target: cAMP-dependent protein kinase (PKA) (Homo sapiens) (UniProt P22694+P17612+P22612); experiment: Inhibition of protein kinase A (unknown origin) at 45 uM relative to control; type: protein assay
PC12D [6] = experiment: Inhibition of A23187-induced Ca2+/CaM kinase II 40-kDa in [32P] orthophosphate labeled rat PC12D cells assessed as increase in phosphorylation at 0.5 to 1 uM preincubated with compound for 1 hr followed by A23187 induction and measured after 30 mins by immunoprecipitation method; type: cell-based; conditions: dose 0.5-1 µM, time 1.5 hrs
[7] = Inhibition of rat brain Ca2+/CaM kinase II independent activity assessed as fold increase in enzyme activity at 50 uM incubated for 1 min
[8] = target: Calcium/calmodulin-dependent protein kinase type II subunit beta (Rattus norvegicus, UniProt P08413); experiment: Inhibition of rat brain Ca2+/CaM kinase II beta subunit autophosphorylation measured after 2 mins in presence of [gamma-33P]ATP by SDS-PAGE analysis; type: tissue-based
[9] = target: Protein kinase C (PKC) (Homo sapiens) (UniProt O94806+P41743+P17252+P05129+Q05655+P05771+Q05513+Q02156+P24723+Q15139+Q04759); experiment: Inhibition of protein kinase C (unknown origin) at 45 uM relative to control; type: protein assay
Rattus norvegicus [10] = species: Rattus norvegicus; experiment: Competitive inhibition of rat brain Ca2+/CaM kinase II at 0.5 to 2.5 uM in presence of calmodulin and varying concentration of [gamma-33P]ATP; type: tissue-based; conditions: dose 0.5-2.5 µM
[11] = Inhibition of rat brain Ca2+/CaM kinase II autophosphorylation assessed as incorporation of 32P into myosin kDa light chain measured at Pi/mg enzyme at 50 uM incubated for 1 min in presence of [gamma-33P]ATP
Homo sapiens = species: Homo sapiens; experiment: Inhibition of Ca2+/CaM kinase II (unknown origin) at 1 uM in presence of [gamma-33P]ATP relative to control
[12] = Inhibition of rat brain Ca2+/CaM kinase II autophosphorylation assessed as decrease in exogenous substrate phosphorylation at 50 uM incubated for 1 min in presence of [gamma-33P]ATP relative to control; parameters: scale not given: the % may be the effect or the level left
Gallus gallus = species: Gallus gallus; experiment: Inhibition of chicken gizzard MLC at 45 uM in presence of [gamma-33P]ATP relative to control
Rattus norvegicus [13] = species: Rattus norvegicus; experiment: Inhibition of rat brain Ca2+/CaM kinase II autophosphorylation assessed as decrease in exogenous substrate phosphorylation at 50 uM incubated for 1 min in presence of [gamma-33P]ATP measured after phosphorylation; type: tissue-based
PC12D [14] = experiment: Inhibition of A23187-induced Ca2+/CaM kinase II 53-kDa in [32P] orthophosphate labeled rat PC12D cells assessed as increase in phosphorylation at 0.5 to 1 uM preincubated with compound for 1 hr followed by A23187 induction and measured after 30 mins by immunoprecipitation method; type: cell-based; conditions: dose 0.5-1 µM, time 1.5 hrs
Rattus norvegicus [15] = species: Rattus norvegicus; experiment: Binding affinity to rat brain Ca2+/CaM kinase II in presence of [gamma-33P]ATP by Sepharose coupled chromatography based analysis; type: tissue-based
[16] = Inhibition of Ca2+/CaM kinase II (unknown origin); parameters: species or system Homo sapiens
[17] = Inhibition of MLC (unknown origin) assessed as inhibition constant; parameters: species or system Homo sapiens
[18] = Inhibition of Ca2+/CaM kinase II (unknown origin) assessed as inhibition constant; parameters: species or system Homo sapiens

Sequence of Calcium/calmodulin-dependent protein kinase type II subunit alpha (P11275 whole entry): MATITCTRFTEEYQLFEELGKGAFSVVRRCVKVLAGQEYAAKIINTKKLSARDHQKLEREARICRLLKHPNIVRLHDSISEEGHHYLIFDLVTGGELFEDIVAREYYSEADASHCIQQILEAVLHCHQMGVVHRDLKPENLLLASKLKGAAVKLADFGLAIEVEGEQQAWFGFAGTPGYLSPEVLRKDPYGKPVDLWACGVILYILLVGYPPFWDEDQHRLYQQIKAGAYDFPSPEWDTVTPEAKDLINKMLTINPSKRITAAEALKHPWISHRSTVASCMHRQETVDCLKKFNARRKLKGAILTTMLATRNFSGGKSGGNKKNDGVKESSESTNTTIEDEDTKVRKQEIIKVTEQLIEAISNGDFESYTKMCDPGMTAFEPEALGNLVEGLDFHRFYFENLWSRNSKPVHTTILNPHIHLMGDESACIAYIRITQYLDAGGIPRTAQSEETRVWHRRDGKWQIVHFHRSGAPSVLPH
Sequence of Calcium/calmodulin-dependent protein kinase type II subunit beta (P08413 whole entry): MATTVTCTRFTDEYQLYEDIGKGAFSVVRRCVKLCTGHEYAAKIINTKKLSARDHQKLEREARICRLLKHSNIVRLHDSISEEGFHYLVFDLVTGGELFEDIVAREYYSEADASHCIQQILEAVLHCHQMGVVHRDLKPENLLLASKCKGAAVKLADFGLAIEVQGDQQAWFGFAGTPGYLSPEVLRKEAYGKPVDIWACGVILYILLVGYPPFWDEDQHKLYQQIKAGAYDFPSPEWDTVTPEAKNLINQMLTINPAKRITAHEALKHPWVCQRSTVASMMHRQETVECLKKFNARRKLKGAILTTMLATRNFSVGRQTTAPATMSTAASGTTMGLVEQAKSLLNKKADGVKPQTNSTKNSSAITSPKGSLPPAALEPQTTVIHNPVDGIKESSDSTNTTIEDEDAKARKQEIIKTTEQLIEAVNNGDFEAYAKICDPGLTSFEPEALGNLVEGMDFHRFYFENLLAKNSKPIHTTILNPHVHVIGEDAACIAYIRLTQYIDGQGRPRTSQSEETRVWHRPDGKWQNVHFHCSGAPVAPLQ

Row | pKi [1] | pIC50 [3] | inhibition [5] [%] | pIC50 [8] | inhibition [9] [%] | inhibition (Rattus norvegicus [10]) | inhibition (Homo sapiens) [%] | inhibition (Gallus gallus) [%] | Activity (Rattus norvegicus [13]) | Activity (Rattus norvegicus [15]) | pIC50 [16] | pKi [17] | pKi [18] | SMILES | inhibition (PC12D [2]) | Activity [4] [nmol] | Activity (PC12D [6]) | fold change (FC) [7] | Activity [11] [nmol] | Activity [12] [%] | Activity (PC12D [14])
1 | 6.05 | 6.35 | 22 | 6.00 | 12 | inactive | 80 | 12 | inactive | Active | – | – | – | CN([C@@H](Cc1ccc(OS(=O)(=O)c2cccc3cnccc23)cc1)C(=O)N1CCN(c2ccccc2)CC1)S(=O)(=O)c1cccc2cnccc12 | Dose-Dependent Effect | 8.1 | inactive | 2.5 | 1.8 | 75 | Active
2 | – | – | – | – | – | – | – | – | – | – | 4.82 | 4.74 | 5.12 | NCCCCCCNS(=O)(=O)c1cccc2c(Cl)cccc12 | – | – | – | – | – | – | –
